Data taken from patent publication US12264170B2, “Antimicrobial organosilanes” (TOPIKOS SCIENTIFIC, INC., priority 2019, dated 2025).
≈ marks a conversion by molar mass, not a printed value. Like-named read-outs stand apart in the source and are kept apart here.

Experiments:
[1] = test system: Streptococcus pyogenes Eurofins 2065755; assay: MIC microdilution assay (Example 32); format: cell-based; conditions: Streptococcus pyogenes; S. pyogenes Eurofins 2065755; CAMHB+5% defibrinated sheep blood; 35±2° C. 18 to 20 hours; two values given; read-out: MIC
Method: (§1) Strain IDs starting with “ATCC” were acquired from the American Type Culture Collection (Manassas, VA), strain IDs starting with “Eurofins” were acquired from Eurofins (Herndon, VA), while strain IDs starting with “CDC” were acquired from the Centers for Disease Control and Prevention (Atlanta, GA). All strains were maintained as −80° C. frozen glycerol stocks. S. aureus and P. aeruginosa were grown overnight on Tryptic Soy Agar (TSA) plates at 35±2° C., ambient atmosphere, while S. pyogenes was grown overnight on TSA+5% defibrinated sheep blood at 35±2° C., 5% CO2. C. jejuni was grown for 48 hours on TSA+5% defibrinated sheep blood at 35±2° C., in a microaerophilic environment generated by CampyGen sachet. All fungal species (i.e. C. albicans and C. auris) were grown overnight on Sabouraud Dextrose Agar (SDA) plates at 35±2° C., ambient atmosphere.
(§2) Test article Compound 1 (batch #7G30A9.203) was stored at 4° C. The antibiotic Tobramycin and antifungal Amphotericin B were used as quality control (QC) compounds for the MIC assay. Stock solutions of 3.2 mg/mL Tobramycin (Sigma-Aldrich, cat #T1783-500MG) and 3.2 mg/mL Amphotericin B (CP Lab Chemicals, cat #TOK-A007-1G) were prepared in sterile ultrapure water.
(§3) For bacteria strains, a few colonies of each strain were collected with a sterile swab and used to make a McFarland 0.5 standard solution (approximately 1×10^8 CFU/mL) in sterile PBS. The McFarland was then diluted 1:180 in Cation Adjusted Muller-Hinton Broth (CAMHB) for S. aureus and P. aeruginosa. S. pyogenes McFarland was diluted 1:180 in CAMHB+5% defibrinated sheep blood, while C. jejuni McFarland was diluted 1:180 in CAMHB+5% laked horse blood. 90 μL of this inoculum was combined with 10 μL of the 10× test article in a 96-well plate for a final concentration of 1×.
(§4) Except for C. jejuni, all bacterial-strain MIC 96-well plates were incubated at 35±2° C. for 18 to 20 hours, ambient atmosphere. C. jejuni was incubated at 35±2° C. for 48 hours, under microaerophilic condition. All Candida MIC 96-well plates were incubated at 35±2° C. for 24 to 48 hours, ambient atmosphere, until growth in control wells were observed. After incubation, the 96-well plates were examined visually and on a spectrophotometer at absorbance OD650. MIC is defined as the lowest concentration of a compound in which no visible growth is observed.

[2] = test system: Pseudomonas aeruginosa ATCC 27853; assay: MIC microdilution assay (Example 32); format: cell-based; conditions: Pseudomonas aeruginosa, ATCC27853; P. aeruginosa ATCC 27853 (quality control); CAMHB; 35±2° C. 18 to 20 hours; two values given; read-out: MIC
Method: as §1, §2, §3, §4

[3] = test system: Pseudomonas aeruginosa Eurofins 1674623; assay: MIC microdilution assay (Example 32); format: cell-based; conditions: Pseudomonas aeruginosa; P. aeruginosa Eurofins 1674623; CAMHB; 35±2° C. 18 to 20 hours; two values given; read-out: MIC
Method: as §1, §2, §3, §4

[4] = test system: Campylobacter jejuni CDC 0413; assay: MIC microdilution assay (Example 32); format: cell-based; conditions: Campylobacter jejuni, CDC0413; C. jejuni CDC 0413; CAMHB+5% laked horse blood; 35±2° C. 48 hours, microaerophilic; two values given; read-out: MIC
Method: as §1, §2, §3, §4

[5] = test system: S. pyogenes ATCC 51339; assay: MIC microdilution assay; format: cell-based, Steptococcus pyogenes; conditions: broth +5% defibrinated sheep blood, 35±2° C. 18 to 20 hours, two values given
Method: (§5) Strain numbers starting with “ATCC” were acquired from the American Type Culture Collection (Manassas, VA), while strain numbers starting with “CDC” were acquired from the Centers for Disease Control and Prevention (Atlanta, GA). All strains were maintained as −80° C. frozen glycerol stocks. S. aureus and P. aeruginosa were grown overnight on Tryptic Soy Agar (TSA) plates at 35±2° C., ambient atmosphere, while S. pyogenes was grown overnight on TSA+5% defibrinated sheep blood at 35±2° C., 5% CO2. All fungal species (i.e. C. albicans, C. auris and C. herbarum) were grown on Sabouraud Dextrose Agar (SDA) plates. C. herbarum was grown at 25±2° C. for 5 to 7 days, while all other fungal strains were grown at 35±2° C. overnight.
as §2, with “Test articles” for “Test article”, “Compound 2” for “Compound 1”, “(batch #2G13A0.368) and Compound 23 (batch #2G17A0.372) were received and” for “(batch #7G30A9.203) was”
as §3, with “aeruginosa, and” for “aeruginosa. S. pyogenes McFarland was diluted 1:180”, “[…]+5%” for “CAMHB+5%”, “blood for S. pyogenes.” for “blood, while C. jejuni McFarland was diluted 1:180 in CAMHB+5% laked horse blood.”
(§6) All bacterial-strain MIC 96-well plates were incubated at 35±2° C. for 18 to 20 hours, while all Candida MIC 96-well plates were incubated at 35±2° C. for 24 to 48 hours. C. herbarum MIC 96-well plates were incubated at 25±2° C. for 3 to 5 days, until growth was visible in the growth control wells. After incubation, the 96-well plates were examined visually and on a spectrophotometer at absorbance OD650. […]

[6] = test system: Cladosporium herbarum ATCC MYA-4682; assay: MIC microdilution assay; format: cell-based; conditions: Cladosporium herbarum; C. herbarum ATCC MYA-4682; RPMI media; 25±2° C. 3 to 5 days; two values given; read-out: MIC
Method: as §5
Test articles Compound 2 (batch #2G13A0.368) and Compound 23 (batch #2G17A0.372) were received and stored at 4° C. The antibiotic Tobramycin and antifungal Amphotericin B were used as quality control (QC) compounds for the MIC assay. […]
All bacterial-strain MIC 96-well plates were incubated at 35±2° C. for 18 to 20 hours, while all Candida MIC 96-well plates were incubated at 35±2° C. for 24 to 48 hours. […] After incubation, the 96-well plates were examined visually and on a spectrophotometer at absorbance OD650. […]

[7] = test system: P. aeruginosa ATCC 27853; assay: MIC microdilution assay; format: cell-based, Pseudomonas aeruginosa; conditions: Pseudomonas aeruginosa, ATCC27853, CAMHB, 35±2° C. 18 to 20 hours, two values given, read-out: MIC
Method: as §5
as §2, with “Test articles” for “Test article”, “Compound 2” for “Compound 1”, “(batch #2G13A0.368) and Compound 23 (batch #2G17A0.372) were received and” for “(batch #7G30A9.203) was”
as §3, with “aeruginosa, and” for “aeruginosa. S. pyogenes McFarland was diluted 1:180”, “[…]+5%” for “CAMHB+5%”, “blood for S. pyogenes.” for “blood, while C. jejuni McFarland was diluted 1:180 in CAMHB+5% laked horse blood.”
as §6

SMILES: NC[C@H]1O[C@H](O[C@H]2[C@H](O)[C@@H](O[C@H]3O[C@H](CO)[C@@H](O)[C@H](N)[C@H]3O)[C@H](N)C[C@@H]2N)[C@H](N)C[C@@H]1O [Tobramycin]
- MIC [1]: 16 µg/mL (≈ 34.2 µM)
- MIC [2]: 0.25 µg/mL (≈ 0.535 µM)
- MIC [3]: > 32 µg/mL
- MIC [4]: > 32 µg/mL
- MIC ([5]; S. pyogenes ATCC 51339): 32 µg/mL (≈ 68.4 µM)
- MIC ([5]; Streptococcus pyogenes, ATCC51339, S. pyogenes ATCC 51339, read-out: MIC): 16 µg/mL (≈ 34.2 µM)
- MIC [6]: > 32 µg/mL
- MIC [7]: 0.25 µg/mL (≈ 0.535 µM)
